# Results published in ChEMBL document CHEMBL5131473, “One-pot synthesis of oxoaporphines as potent antitumor agents and investigation of their mechanisms of actions” (Eur J Med Chem, 2022).
# Activity calls are given as the source filed them. No cut-off for these calls is given here.
# Key:
# T-24 [1] = assay: Induction of mitochondrial mediated apoptosis in human T24 cells assessed as upregulation of cytochrome c expression at 10 to 15 uM incubated for 24 hrs by Western blotting analysis; assay type: functional, cell-based; conditions: dose 10-15 µM
# T-24 [2] = assay: Induction of apoptosis in human T24 cells assessed as necrotic cells at 10 uM incubated for 24 hrs by Annexin-V/PI staining based flow cytometry analysis (reference value: 1.92 %); assay type: functional
# T-24 [3] = assay: Induction of DNA damage in human T24 cells assessed as increase in […] p53 expression at 10 to 15 uM incubated for 24 hrs by Western blot analysis; assay type: functional, cell-based; conditions: dose 10-15 µM
# T-24 [4] = assay: Inhibition of colony formation in human T24 cells 0.2 to 10 uM incubated for 24 hrs and measured for 10 days; assay type: functional, cell-based; conditions: dose 0.2-10 µM
# T-24 [5] = assay: Induction of apoptosis in human T24 cells assessed as increase in caspase 9 activity at 10 uM (Rvb= 7.2%); assay type: functional
# T-24 [6] = assay: Induction of mitochondrial membrane potential dysfunction in human T24 cells assessed as decrease in ATP production at 15 uM; assay type: functional; set-up: scale not given: the % may be the effect or the level left
# T-24 [7] = assay: Induction of mitochondrial mediated apoptosis in human T24 cells assessed as upregulation of apaf-1 expression at 10 to 15 uM incubated for 24 hrs by Western blotting analysis; assay type: functional, cell-based; conditions: dose 10-15 µM
# T-24 [8] = assay: Induction of mitochondrial membrane potential dysfunction in human T24 cells assessed as disappearance of cristae at 10 uM incubated for 24 hrs by TEM analysis; assay type: functional, cell-based
# T-24 [9] = assay: Induction of ROS generation in human T24 cells at 10 uM by fluorescence microscopy; assay type: functional, cell-based
# T-24 [10] = assay: Induction of apoptosis in human T24 cells assessed as late apoptotic cells at 10 uM incubated for 24 hrs by Annexin-V/PI staining based flow cytometry analysis (reference value: 0.543 %); assay type: functional
# T-24 [11] = assay: Induction of ROS accumulation in human T24 cells assessed as increase in intracellular ROS level at 10 uM by […] based flow cytometry; assay type: functional, cell-based
# T-24 [12] = assay: Induction of apoptosis in human T24 cells assessed as condensed chromatin at 10 uM by Hoechst33258 staining based fluorescence microscopy; assay type: functional, cell-based
# T-24 [13] = assay: Induction of cell cycle arrest in human T24 cells assessed as increase in CDK1 expression at 10 to 15 uM incubated for 24 hrs by chemiluminescence based Western blotting analysis; assay type: functional; conditions: dose 10-15 µM, DDE = dose-dependent effect
# T-24 [14] = assay: Inhibition of colony formation in human T24 cells upto 5 uM incubated for 24 hrs and measured for 10 days; assay type: functional; conditions: up to 5 µM
# T-24 [15] = assay: Induction of mitochondrial ROS generation in human T24 cells at 0.5 uM measured after 24 hrs by Mitotracker Red dye based confocal microscopy method; assay type: functional, cell-based
# T-24 [16] = assay: Induction of cell cycle arrest in human T24 cells assessed as accumulation of cells at S phase at 0.5 uM incubated for 24 hrs by propidium iodide/RNase A staining based flow cytometry analysis (reference value: 42.47 %); assay type: functional
# T-24 [17] = assay: Induction of apoptosis in human T24 cells assessed as increase in caspase 9 activity at 0.5 uM (Rvb= 7.2%); assay type: functional
# T-24 [18] = assay: Induction of cell cycle arrest in human T24 cells assessed as increase in Cyclin B expression at 0.5 to 1 uM incubated for 24 hrs by chemiluminescence based Western blotting analysis; assay type: functional; conditions: dose 0.5-1 µM, DDE = dose-dependent effect
# T-24 [19] = assay: Induction of mitochondrial membrane potential dysfunction in human T24 cells assessed as nuclear condensation at 0.5 to 1 uM by mito-tracker green dye based fluorescence microscopy; assay type: functional, cell-based; conditions: dose 0.5-1 µM
# T-24 [20] = assay: Induction of apoptosis in human T24 cells assessed as condensed chromatin at 0.5 uM by Hoechst33258 staining based fluorescence microscopy; assay type: functional, cell-based
# T-24 [21] = assay: Induction of apoptosis in human T24 cells assessed as condensation of nuclei at 0.5 uM by Hoechst33258 staining based fluorescence microscopy; assay type: functional, cell-based
# T-24 [22] = assay: Inhibition of colony formation in human T24 cells at 0.01 uM incubated for 24 hrs and measured for 10 days; assay type: functional, cell-based
# T-24 [23] = assay: Induction of cell cycle arrest in human T24 cells assessed as increase in CDK1 expression at 0.5 to 1 uM incubated for 24 hrs by chemiluminescence based Western blotting analysis; assay type: functional; conditions: dose 0.5-1 µM, DDE = dose-dependent effect
# T-24 [24] = assay: Induction of apoptosis in human T24 cells assessed as necrotic cells at 0.5 uM incubated for 24 hrs by Annexin-V/PI staining based flow cytometry analysis (reference value: 1.92 %); assay type: functional
# T-24 [25] = assay: Induction of mitochondrial membrane potential dysfunction in human T24 cells assessed as shrinking mitochondria at 0.5 uM incubated for 24 hrs by TEM analysis; assay type: functional, cell-based
# T-24 [26] = assay: Induction of apoptosis in human T24 cells assessed as condensed chromatin at 2 uM by Hoechst33258 staining based fluorescence microscopy; assay type: functional, cell-based
# T-24 [27] = assay: Induction of mitochondrial membrane potential dysfunction in human T24 cells assessed as decrease in ATP production at 4 uM; assay type: functional; set-up: scale not given: the % may be the effect or the level left
# T-24 [28] = assay: Induction of cell cycle arrest in human T24 cells assessed as accumulation of cells at G1 phase at 2 uM incubated for 24 hrs by propidium iodide/RNase A staining based flow cytometry analysis (reference value: 51.71 %); assay type: functional
# T-24 [29] = assay: Induction of mitochondrial ROS generation in human T24 cells at 2 uM measured after 24 hrs by Mitotracker Red dye based confocal microscopy method; assay type: functional, cell-based
# T-24 [30] = assay: Induction of mitochondrial mediated apoptosis in human T24 cells assessed as decrease in Bcl-2 protein expression at 2 to 4 uM incubated for 24 hrs by Western blotting analysis; assay type: functional, cell-based; conditions: dose 2-4 µM
# T-24 [31] = assay: Induction of DNA damage in human T24 cells assessed as increase in […] p53 expression at 2 to 4 uM incubated for 24 hrs by Western blot analysis; assay type: functional, cell-based; conditions: dose 2-4 µM
# T-24 [32] = assay: Induction of mitochondrial Ca2+ production in human T24 cells assessed as increase in intracellular Ca2+ concentration at 2 uM by Rhod2-AM staining based fluorescence microscopic method; assay type: functional, cell-based
# T-24 [33] = assay: Induction of cell cycle arrest in human T24 cells assessed as accumulation of cells at G2/M phase at 4 uM incubated for 24 hrs by propidium iodide/RNase A staining based flow cytometry analysis (reference value: 5.82 %); assay type: functional
# T-24 [34] = assay: Induction of apoptosis in human T24 cells assessed as viable cells at 6 uM incubated for 24 hrs by Annexin-V/PI staining based flow cytometry analysis (reference value: 94.3 %); assay type: functional; conditions: read-out: Activity
# T-24 [35] = assay: Induction of DNA damage in human T24 cells assessed as increase in gamma H2AX expression at 2 to 4 uM incubated for 24 hrs by Western blot analysis; assay type: functional, cell-based; conditions: dose 2-4 µM
# T-24 [36] = assay: Induction of DNA damage in human T24 cells assessed as increase in gamma H2AX phosphorylation at 2 uM incubated for 24 hrs by Hoechst33258 staining based immunofluorescence assay; assay type: functional, cell-based
# T-24 [37] = assay: Induction of mitochondrial membrane potential dysfunction in human T24 cells assessed as shrinking mitochondria at 2 uM incubated for 24 hrs by TEM analysis; assay type: functional, cell-based
# T-24 [38] = assay: Induction of apoptosis in human T24 cells assessed as condensation of nuclei at 2 uM by Hoechst33258 staining based fluorescence microscopy; assay type: functional, cell-based
smiles,measurement,setting,value
O=C1c2ccccc2-c2cccc3ccnc1c23,Activity,T-24 [1],Active
same,Activity,T-24 [2],3.31%
same,Activity,T-24 [3],Active
same,inhibition,T-24 [4],Active
same,Activity,T-24 [5],24.8%
same,Activity,T-24 [6],66.2%
same,Activity,T-24 [7],Active
same,Activity,T-24 [8],Active
same,Activity,T-24 [9],Active
same,Activity,T-24 [10],3.25%
same,Activity,T-24 [11],Active
same,Activity,T-24 [12],Active
same,Activity,T-24 [13],Dde
same,inhibition (INH),T-24 [14],100%
O=C1c2ccccc2-c2ccc([N+](=O)[O-])c3ccnc1c23,Activity,T-24 [15],Active
same,Activity,T-24 [16],47.37%
same,Activity,T-24 [17],26.9%
same,Activity,T-24 [18],Dde
same,Activity,T-24 [19],Active
same,Activity,T-24 [20],Active
same,Activity,T-24 [21],Active
same,inhibition,T-24 [22],Active
same,Activity,T-24 [23],Dde
same,Activity,T-24 [24],1.54%
same,Activity,T-24 [25],Active
O=C1c2cc([N+](=O)[O-])ccc2-c2ccc([N+](=O)[O-])c3ccnc1c23,Activity,T-24 [26],Active
same,Activity,T-24 [27],43.1%
same,Activity,T-24 [28],0.27%
same,Activity,T-24 [29],Active
same,Activity,T-24 [30],Active
same,Activity,T-24 [31],Active
same,Activity,T-24 [32],Active
same,Activity,T-24 [33],14.18%
same,viability at 6 µM,T-24 [34],54.1%
same,Activity,T-24 [35],Active
same,Activity,T-24 [36],Active
same,Activity,T-24 [37],Active
same,Activity,T-24 [38],Active
